Assay results reported in patent US4522943A, “Chemical compounds” (Bristol-Myers Company, priority 1982, dated 1985).

Legend:
gastric acid secretion [1] = assay: Gastric Antisecretory Activity in the Gastric Fistula Rat; type: in vivo, Male Long Evans rats; details: sc, relative to cimetidine = 1.0, 95% confidence limits on following line
Procedure: (§1) Med Res., 3, 86 (1975). […] Two of the standard animal models for determining gastric antisecretory activity of histamaine H2 -antagonists are the Gastric Fistula Rat and the Heidenhain Pouch Dog.
Determination of Gastric Antisecretory Activity in the Gastric Fistula Rat
Male Long Evans rats weighing about 240-260 grams at the time of cannula implantation are used. The design and implantation of the stainless steel cannula into the anterior wall of the fore-stomach are carried out essentially as described by Pare et al. [Laboratory Animal Science, 27, 244 (1977)]. The fistula components are designed and the operative procedure is carried out exactly as described in the above reference. Post operatively the animals are individually housed in solid bottom cages with sawdust and are allowed food and water ad libitum throughout the entire recovery period. Animals are not used for test purposes for at least 15 days after the operative procedure.
The animals are fasted but allowed water ad libitum for 20 hours before the testing procedure is to begin. […]
Titratable acid output is calculated in microequivalents by multiplying the volume in milliliters by the acid concentration in milliequivalents per liter.
Results are expressed as percent inhibition relative to control readings. Dose response curves are constructed and ED50 values are calculated by regression analyses. […]

gastric acid secretion [2] = assay: Gastric Antisecretory Activity in the Heidenhain Pouch Dog; type: in vivo, female dogs; details: for Potency Ratio [cimetidine = 1.0] (INTRAVENOUS) / Potency Ratio [cimetidine = 1.0] (ORAL): relative to cimetidine = 1.0
Procedure: The dosage of the compounds of this invention will depend not only on such factors as the weight of the patient, but also on the degree of gastric acid inhibition desired and the potency of the particular compound being utilized. The decision as to the particular dosage to be employed is within the discretion of the physician. […] The usual human adult oral dose of cimetidine is 300 mg, given four times a day. The usual human adult starting oral dosages of the compounds of this invention are readily determined from their oral ED50 in this same test. […] Similar calculations may be made for iv dosages. These starting dosages (and the number of times administered per day) may, of course, be varied by titration of the dosage to the particular circumstances of the specific patient. […] The active ingredient will preferably be administered in equal doses from one to four times a day.
as §1
Determination of Gastric Antisecretory Activity in the Heidenhain Pouch Dog
Prior to surgery, hematology and blood chemistry profiles are obtained and an assessment made as to the general health of selected female dogs. Dogs are vaccinated with Tissue Vax 5 (DHLP-Pitman-Moore) and housed in general animal quarters for four weeks' observation so incipient diseases may become apparent. Dogs are fasted with water ad libitium 24 hours prior to surgery.
Anesthesia is induced with Sodium Pentothal (Abbott) 25-30 mg/kg iv. Subsequent anesthesia is maintained with methoxyflurane (Pitman-Moore). A mid-line linea alba incision from xiphoid to umbilicus provides good exposure and ease of closure. The stomach is pulled up into the operative field, the greater curvature stretched out at multiple points and clamps placed along the selected line of incision. The pouch is made from the corpus of the stomach so that true parietal cell juice is obtained. About 30% of the corpus volume is resected. The cannula is made of light-weight,biologically-inert material such as nylon or Delrin with dimensions and attachments after DeVito and Harkins [J. Appl. Physiol., 14, 138 (1959)]. Post operatively, dogs are medicated with antibiotics and an analgesic. They are allowed 2-3 months for recovery. Experiments are carried out in the following way: Dogs are fasted overnight (~18 hours) with water ad libitum prior to each experiment. The dogs are placed in a sling and a saphenous vein cannulated for drug administration. Histamine as the base (100 μg/kg/hr and chlorpheniramine maleate (0.25 mg/kg/hr) are infused continuously (in a volume of 6 ml/hr) with a Harvard infusion pump.
Ninety minutes' infusion are allowed for the dogs to reach a steady state of acid output. At this time the drug or normal saline (control) is administered concomitantly with the secretagogue in a volume of 0.5 ml/kg over a 30 second period. When oral studies are to be carried out, the drug is administered via gastric gavage in a volume of 5 ml/kg. Infusion of the secretagogue is continued and 15 minute samples of the gastric juice are taken for 4.5 hours. Each sample is measured to the nearest 0.5 ml and titratable acidity is determined by titrating a 1 ml sample to pH 7.0 with 0.2N NaOH, using an Autoburet and an electrometric pH meter (Radiometer). Titratable acid output is calculated in microequivalents by multiplying the volume in milliliters by the acid concentration in milliequivalents per liter.
Results are expressed as percent inhibition relative to control readings. Dose response curves are constructed and ED50 values are calculated by regression analyses. From 3 to 5 dogs are used at each dose level and a minimum of three dosage levels are utilized for determination of a dose response curve.

histamine H2-receptor = details: relative to another H2-antagonist; cited from earlier work
gastric secretion = details: in animals, including man; cited from earlier work
[3] = in vivo; cited from earlier work
[4] = peptic ulcer disease, clinical evaluation; cited from earlier work

CN(C)Cc1ccc(CSCCNc2c(N)c(=O)c2=O)s1 [Example 3, 1-Amino-2-{2-[(5-dimethylaminomethyl-2-thienyl)methylthio]ethylamino}cyclobutene-3,4-dione]
Potency Ratio [cimetidine = 1.0] (gastric acid secretion [1]): ~ 1

CN(C)Cc1ccc(CSCCNc2c(N)c(=O)c2=O)o1 [Example 2, 1-Amino-2-{2-[(5-dimethylaminomethyl-2-furyl)metylthio]ethylamino}cyclobutene-3,4-dione]
Potency Ratio [cimetidine = 1.0] (INTRAVENOUS) (gastric acid secretion [2]): ~ 20

Nc1c(NCCCOc2cccc(CN3CCCCCC3)c2)c(=O)c1=O [Example 10i, 1-amino-2-[3-(3-hexamethyleneiminomethylphenoxy)propylamino]cyclobutene-3,4-dione]
Potency Ratio [cimetidine = 1.0] (INTRAVENOUS) (gastric acid secretion [2]): > 40

CNC(=S)NCCSCc1nc[nH]c1C [Metiamide]
H2-antagonist potency / effectiveness (histamine H2-receptor): more potent than burimamide

CNC(=S)NCCCCc1cnc[nH]1 [Burimamide]
inhibits gastric secretion (gastric secretion): inhibits gastric secretion | oral absorption [3]: poor

CN(C)Cc1cccc(OCCCNc2c(N)c(=O)c2=O)c1 [Example 9, 1-Amino-2-[3-(3-dimethylaminomethylphenoxy)propylamino]cyclobutene-3,4-dion]
Potency Ratio [cimetidine = 1.0] (INTRAVENOUS) (gastric acid secretion [2]): ~ 40 | Potency Ratio [cimetidine = 1.0] (ORAL) (gastric acid secretion [2]; oral): ~ 20

CNC(=NC#N)NCCSCc1nc[nH]c1C [Cimetidine]
ED50 (ORAL) (gastric acid secretion [2]; oral, histamine-stimulated, 95% confidence limits on following line): 3.29 µmol/kg | H2-antagonist potency / effectiveness (histamine H2-receptor): as effective an H2 -antagonist as metiamide | clinical effectiveness [4]: effective therapeutic agent in the treatment of peptic ulcer disease

Nc1c(NCCCOc2cccc(CN3CCCCC3)c2)c(=O)c1=O [Example 1, 1-Amino-2-[3-(3-piperidinomethylphenoxy)propylamino]cyclobutene-3,4-dione]
Potency Ratio [cimetidine = 1.0] (INTRAVENOUS) (gastric acid secretion [2]): 87 | Potency Ratio [cimetidine = 1.0] (ORAL) (gastric acid secretion [2]; oral): 25
